Assay results taken from US9796704B2, “Substituted quinazolines as receptor-type kinase inhibitors” (Symphony Evolution, Inc., priority 2002, dated 2017).
pIC50: −log10 of the molar value. Like-named read-outs stand apart in the source and are kept apart here.

How the values were obtained:
EphA2 = EphA2 (Homo sapiens (Human), UniProt P29317); assay: EphA2 kinase inhibition, luciferase-coupled chemiluminescent assay (LCCA)
KDR = KDR (Homo sapiens (Human), UniProt P35968); assay: KDR kinase inhibition, luciferase-coupled chemiluminescent assay (LCCA)
Protocol: Kinase activity and compound inhibition are investigated using one or more of the three assay formats described below. The ATP concentrations are selected near its Michaelis-Menten constant (KM) for each individual kinase. Dose-response experiments are performed at ten different inhibitor concentrations in a 384-well plate format. […] Typically H is close to unity.
In the LCCA assays, kinase activity is measured by the ATP consumption that is accurately measured by luciferase-coupled chemiluminescence. Greiner 384-well white clear bottom medium binding plates are used for LCCA. Briefly the kinase reaction is initiated by mixing compounds, ATP and kinases in a 20 μL volume. At the end of the kinase reaction, a 20 μL luciferase-luciferin mix is added and the chemiluminescent signal is read on a Wallac Victor^2 reader.

EGFR = EGFR (Homo sapiens (Human), UniProt P00533); assay: EGFR kinase inhibition, luciferase-coupled chemiluminescent assay (LCCA)
ErbB2 = ErbB2 (Homo sapiens (Human), UniProt P04626); assay: ErbB2 kinase inhibition, AlphaScreen; type: biochemical
Protocol: Kinase activity and compound inhibition are investigated using one or more of the three assay formats described below. The ATP concentrations are selected near its Michaelis-Menten constant (KM) for each individual kinase. Dose-response experiments are performed at ten different inhibitor concentrations in a 384-well plate format. […] These parameters are obtained by nonlinear regression algorithm built into ActivityBase software (available from ID Business Solutions Ltd., of Guildford, Surrey, UK). ^33P Phosphoryl Transfer Assay (Radiometric)

EphB4 = EphB4 (Homo sapiens (Human), UniProt P54760); assay: EphB4 kinase inhibition, 33P phosphoryl transfer assay (radiometric); type: biochemical
Sequence of EphB4 (P54760 605-890): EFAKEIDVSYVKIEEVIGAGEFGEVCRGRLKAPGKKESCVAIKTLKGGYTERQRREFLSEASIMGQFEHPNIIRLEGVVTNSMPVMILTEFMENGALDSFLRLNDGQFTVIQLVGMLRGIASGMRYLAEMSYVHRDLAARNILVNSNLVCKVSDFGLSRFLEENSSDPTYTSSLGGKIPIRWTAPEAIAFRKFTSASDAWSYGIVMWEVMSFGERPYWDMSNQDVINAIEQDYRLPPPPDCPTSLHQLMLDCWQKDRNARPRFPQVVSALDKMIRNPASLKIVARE

Sequence of EphA2 (P29317 598-890): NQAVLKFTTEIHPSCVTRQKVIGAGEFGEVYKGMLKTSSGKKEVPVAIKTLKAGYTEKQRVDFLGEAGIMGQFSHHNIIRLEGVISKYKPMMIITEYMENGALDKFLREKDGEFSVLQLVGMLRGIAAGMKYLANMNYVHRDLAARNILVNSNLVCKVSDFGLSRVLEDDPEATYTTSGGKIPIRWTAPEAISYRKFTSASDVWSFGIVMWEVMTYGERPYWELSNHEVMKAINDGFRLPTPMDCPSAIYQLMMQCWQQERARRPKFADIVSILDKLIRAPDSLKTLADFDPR
Sequence of KDR (P35968 807-1356): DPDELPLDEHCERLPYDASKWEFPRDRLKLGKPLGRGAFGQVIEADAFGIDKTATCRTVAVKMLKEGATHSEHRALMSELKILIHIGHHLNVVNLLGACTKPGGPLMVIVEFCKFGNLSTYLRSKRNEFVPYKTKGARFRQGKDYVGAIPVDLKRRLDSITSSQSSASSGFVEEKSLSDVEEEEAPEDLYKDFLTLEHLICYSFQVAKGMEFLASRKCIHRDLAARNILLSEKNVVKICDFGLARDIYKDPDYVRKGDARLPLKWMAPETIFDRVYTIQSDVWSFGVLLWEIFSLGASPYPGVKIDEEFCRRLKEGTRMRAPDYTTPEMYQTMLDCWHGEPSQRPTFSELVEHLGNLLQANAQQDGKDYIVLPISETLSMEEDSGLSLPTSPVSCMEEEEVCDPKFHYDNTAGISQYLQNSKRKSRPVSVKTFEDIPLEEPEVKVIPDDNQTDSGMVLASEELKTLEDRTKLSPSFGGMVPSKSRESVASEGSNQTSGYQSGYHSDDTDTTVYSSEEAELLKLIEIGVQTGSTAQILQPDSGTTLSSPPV

With COc1cc2c(Nc3ccc(Cl)c(Cl)c3)ncnc2cc1OCc1nc([C@@H]2CCCN2)no1 [Example 243, N-(3,4-dichlorophenyl)-6-(methyloxy)-7-[({3-[(2S)-pyrrolidin-2-yl]-1,2,4-oxadiazol-5-yl}methyl)oxy]quinazolin-4-amine] the pIC50 (EphA2; read-out: EphA2 IC50) was > 7.30, the pIC50 (KDR; read-out: KDR IC50) was > 7.30 and the pIC50 (EGFR; read-out: EGFR IC50) was > 7.30. For the same compound, the pIC50 (ErbB2) was > 7.30 and the pIC50 (EphB4) was > 7.30.
In the case of “N-(3,4-dichlorophenyl)-7-{[(5-ethyl-4,5,6,7-tetrahydro[1,3]thiazolo[5,4-c]pyridin-2-yl)methyl]oxy}-6-(methyloxy)quinazolin-4-amine hydrochloride [Example 35]”, the pIC50 (EphA2; read-out: EphA2 IC50) was 6.00 to 7.30, the pIC50 (KDR; read-out: KDR IC50) was > 7.30 and the pIC50 (EGFR; read-out: EGFR IC50) was > 7.30. For the same compound, the pIC50 (ErbB2) was 6.00 to 7.30 and the pIC50 (EphB4) was 6.00 to 7.30.
COc1cc2c(Nc3cc(Br)cc(C(F)(F)F)c3)ncnc2cc1O[C@@H]1CO[C@@H]2[C@H]1OC[C@H]2F [Example 127, 1,4:3,6-dianhydro-5-O-[4-{[3-bromo-5-(trifluoromethyl)phenyl]amino}-6-(methyloxy)quinazolin-7-yl]-2-deoxy-2-fluoro-D-iditol] was tested, and the pIC50 (EphA2; read-out: EphA2 IC50) was > 7.30, the pIC50 (KDR; read-out: KDR IC50) was > 7.30 and the pIC50 (EGFR; read-out: EGFR IC50) was > 7.30. The pIC50 (ErbB2) was > 7.30 and the pIC50 (EphB4) was > 7.30.
With COc1cc2c(Nc3ccc(Cl)c(Cl)c3)ncnc2cc1OCCN1C(=O)c2ccccc2C1=O [Example 193, 2-(2-{[4-[(3,4-dichlorophenyl)amino]-6-(methyloxy)quinazolin-7-yl]oxy}ethyl)-1H-isoindole-1,3(2H)-dione] the pIC50 (EphA2; read-out: EphA2 IC50) was 6.00 to 7.30, the pIC50 (KDR; read-out: KDR IC50) was > 7.30 and the pIC50 (EGFR; read-out: EGFR IC50) was > 7.30. For the same compound, the pIC50 (ErbB2) was > 7.30 and the pIC50 (EphB4) was > 7.30.
CCN(CC)c1ccc(-c2csc(COc3cc4ncnc(Nc5ccc(Cl)c(Cl)c5)c4cc3OC)n2)cc1 [Example 199, N-(3,4-dichlorophenyl)-7-[({4-[4-(diethylamino)phenyl]-1,3-thiazol-2-yl}methyl)oxy]-6-(methyloxy)quinazolin-4-amine] was tested, and the pIC50 (EphA2; read-out: EphA2 IC50) was > 7.30, the pIC50 (KDR; read-out: KDR IC50) was > 7.30 and the pIC50 (EGFR; read-out: EGFR IC50) was > 7.30. The pIC50 (ErbB2) was > 7.30 and the pIC50 (EphB4) was > 7.30.
For COc1cc2c(Nc3ccc(Cl)c(Cl)c3)ncnc2cc1OCC1CN(C(=NC#N)N2CCCCC2)CCO1 (stereo in doubt) [Example 216, [(1E)-[2-({[4-[(3,4-dichlorophenyl)amino]-6-(methyloxy)quinazolin-7-yl]oxy}methyl)morpholin-4-yl](piperidin-1-yl)methylidene]cyanamide], the pIC50 (EphA2) was 6.00 to 7.30, the pIC50 (KDR) was 6.00 to 7.30 and the pIC50 (EGFR) was > 7.30. The pIC50 (ErbB2) was > 7.30 and the pIC50 (EphB4) was > 7.30.
For COc1cc2c(Nc3ccc(Cl)c(Cl)c3)ncnc2cc1OCc1csc(N2CCOCC2)n1 [Example 204, N-(3,4-dichlorophenyl)-6-(methyloxy)-7-{[(2-morpholin-4-yl-1,3-thiazol-4-yl)methyl]oxy}quinazolin-4-amine], the pIC50 (EphA2; read-out: EphA2 IC50) was > 7.30, the pIC50 (KDR; read-out: KDR IC50) was > 7.30 and the pIC50 (EGFR; read-out: EGFR IC50) was > 7.30. The pIC50 (ErbB2) was > 7.30 and the pIC50 (EphB4) was > 7.30.
With “N-(3,4-dichlorophenyl)-6-(methyloxy)-7-{[(5-methyl-4,5,6,7-tetrahydro[1,3]thiazolo[5,4-c]pyridin-2-yl)methyl]oxy}quinazolin-4-amine hydrochloride [Example 34]” the pIC50 (EphA2; read-out: EphA2 IC50) was 6.00 to 7.30, the pIC50 (KDR; read-out: KDR IC50) was 6.00 to 7.30 and the pIC50 (EGFR; read-out: EGFR IC50) was > 7.30. For the same compound, the pIC50 (ErbB2) was > 7.30 and the pIC50 (EphB4) was 6.00 to 7.30.
